Data from US20090186835A1, “TREATMENT AND PROPHYLAXIS OF CANCER” (priority 2008, published 2009).
Read-outs that look alike come from different tables or passages of the source.

Assays:
[1] = test system: human pancreatic carcinoma cells (HPAC); test: CytoTox 96 LDH release cytotoxicity assay on HPAC cells
Description: (§1) The pancreatic cancer cell line, human pancreatic carcinoma cells (HPAC), was obtained from American Tissue and Cell Culture and cultured in complete media according to American Tissue and Cell Culture guidelines in T-75-cm^2 flasks in a 37° C. incubator with 5% CO2. HPAC cells were grown in Dulbecco's modified Eagle's medium with Ham F-12, 5% fetal bovine serum, 5% penicillin/streptomycin, 0.002 mg/mL insulin, 0.005 mg/mL transferrin, 40 ng/mL hydrocortisone, and 10 ng/mL epidermal growth factor.
(§2) 1×10^4 HPAC cells were aliquoted into each well of a 96-well plate and served as target cells. They were plated in phenol red dye-free RPMI 1640 (HyClone, Logan, Utah) complete medium (1 mM L-glutamine, 100 U/mL penicillin, 100 μg/mL streptomycin, 5% heat-inactivated fetal bovine serum; Gibco-BRL, Grand Island, N.Y.) and incubated with either natural mixture or sophorolipid derivative in increasing concentrations (0, 50, 100, 150, 200 mg; 100 μL final volume) at 37° C. with 5% CO2 overnight.
(§3) Assays were carried out using a CytoTox 96 Non-Radioactive Cytotoxicity Assay (Promega, Woodshole, Mass.), in accordance with manufacturer's directions. This assay measures lactate dehydrogenase (LDH) release by target cells, after conversion of a tetrazolium salt into a formazan red product. Cytotoxicity as measured by LDH release is considered an effective measure of determining cellular necrosis. Sophorolipid mixtures or derivatives (0, 50, 100, 150, 200 mg) were added to 96-well tissue culture plates (Fisher Scientific, Springfield, N.J.) containing HPAC cells (100 μL final volume) and incubated at 37° C., 5% CO2, for 20 h. To establish maximum lysis, lysing solution (9% v/v Triton-X 100; 10 μL) was added to representative culture wells containing HPAC cells. After incubation, supernatant (50 μL) was transferred to a fresh 96-well plate. Chromogenic substrate solution (50 μL) was added to each well while the plates were incubated in the dark at RT for 30 min, after which stop solution (1M NaAc; 50 μL) was added to each well to stop the reaction.
(§4) Cytotoxicity as measured by LDH release was determined by spectrophotometry at 450 nm (Bio-Tek Instruments Inc., Winooski, Vt.). […] Data shown represent the mean of at least three experiments±SE and are expressed as percentage cytotoxicity. Background controls were corrected for and consisted of target cell spontaneous (HPACs in media) and target cell maximum (HPACs in media with 10 μL lysis solution). Target cell maximum was corrected for by a volume control (media with 10 μL lysis solution). Each experiment was corrected for by a sophorolipid control (sophorolipid in media). These controls were incubated on the same 96-well plate as experimental assays. Percent (%) cytotoxicity was calculated according to the general equation below:
(§5) Values for results were expressed as means±SE obtained from multiple determinations in three or more separate experiments. P values computed were two-tailed, and P<0.05 was considered statistically significant (Student's t-test, analysis of variance with Tukey post-hoc correction; SPSS version 10.0, Chicago, Ill.).

[2] = test system: Human pancreatic carcinoma (HPAC) cells; test: Apoptosis (annexin) in HPAC cells; type: cell-based; conditions: 0.5-2.0 mg/ml, 24 hours
Description: The sophorolipid mixtures of the present invention have anti cancer properties, which were confirmed by experiment and observations. […] Controls consisted of cells treated with media or vehicle alone and sophorolipids treatment of peripheral blood mononuclear cells (PBMC). AS mediated toxicity was inversely proportional with dose (LSD—40.3% at 0.5 mg/ml, 3.4% at 2.0 mg/ml, AS 49% at 0.5 mg/ml, 0% at 2.0 mg/ml).

[3] = test system: human pancreatic carcinoma cells (HPAC)
Description: as §1, §2, §3, §4, §5

| Molecule | percent cytotoxicity (LDH release) ([1]; HPAC cells cultured with 100 μg of sophorolipid natural mixture or derivative, FIG. 2) [%] | percent cytotoxicity (LDH release) ([1]; HPAC cells, 0.5 mg/mL) [%] | percent cytotoxicity (LDH release) ([1]; HPAC cells, 2.0 mg/mL) [%] | dose dependence of the cytotoxic response ([1]; HPAC cells, 0.5-2.0 mg/ml, in words) | apoptosis (annexin) [2] | dose dependence of the cytotoxic response [3] |
| --- | --- | --- | --- | --- | --- | --- |
| CC(=O)OC[C@H]1O[C@H]2OC(C)CCCCCC/C=C\CCCCCCCC(=O)O[C@H]3[C@H](O)[C@@H](O)[C@H](O[C@@H]2[C@@H](O)[C@@H]1O)O[C@@H]3COC(C)=O (stereo partly drawn) [LSD, lactonic sophorolipid diacetate] | 26.2 | 40.3 | 3.4 | inversely proportional to dose |  |  |
| acidic sophorolipid [AS] |  |  |  |  | Dose dependant apoptosis could be observed | inversely proportional to dose |
